Reference: US12616203B2, “Use of 3-isoxazolidinones compounds as selective herbicides” (FMC Corporation, priority 2014, dated 2026)

Assays:
[1] = system: weeds; cotton, lentil, mung bean, bush bean, and cowpea; assay: Ex33 PRE greenhouse; type: in vivo; settings: rate in the words
Text: ANTHEM® (fluthiacet-methyl, 0.69% plus pyroxasulfone, 22.61%) was included as a standard at labeled rate, Fluthiacet-methyl at 4.9 g ai/ha and pyroxasulfone at 165 g ai/ha. […] The following weeds were screened, Palmer amaranth, Pennsylvania smartweed, velvetleaf, green foxtail, morningglory, Italian ryegrass, prickly sida, and yellow nutsedge. Crops screened were cotton, lentil, mung bean, bush bean, and cowpea. […] Thereafter flats were watered and fertilized routinely.

weeds; Wheat and canola [2] = assay: Ex44 PRE greenhouse; type: in vivo; settings: weed and rate in the words
Text: Redroot pigweed (Amaranth retroflexus, AMARE), Italian ryegrass (Lolium perenne. multiflorum, LOLMU), wild mustard (Sinapis arvensis, SINAR), annual bluegrass (Poa annua POAAN), wild oat (Avena fatua, AVEFA), blackgrass (Alopecurus myosuroides, ALOMY), common lambsquarters (Chenopodium album, […] (Phalaris minor, PHAMI), common chickweed (Stellaria media, STEME), corn poppy (Papaver rhoeas, PAPRH) and silky […]). Crops tested included wheat and canola. […] Treatments were applied before the emergence of redroot pigweed, Italian ryegrass, wild oat, blackgrass, littleseed canarygrass, common chickweed, common lambsquarters, corn poppy, wild mustard, annual bluegrass, silky […], canola, and wheat. […] Flats were watered and fertilized routinely after treatment application.

common chickweed = assay: Ex14 POST 2,4-DC + bromoxynil, % control 28 DAT, Colby; type: in vivo, Stellaria media
Text: The study further assessed post crop safety on Wheat and Barley.
Nonionic surfactant at 0.5% (v/v) was included with commercial standards application. No adjuvant was applied with any other treatments. All plant species were direct seeded into 3″ plastic pots using metro-mix as growth media. At treatment application common lambsquarters was 1.75″, common chickweed was 2″, wild mustard was 2.25″, wild oat was 5.5″, wild buckwheat was 2-5″, Italian ryegrass was 2-3″, wheat was 5.5″, and barley was 4.5″ in height. Plants were watered well before application and not watered 24 h after application. Plants were watered and fertilized routinely after treatment application. Each treatment was replicated four times.

Italian ryegrass (IR) = assay: Ex2 PRE greenhouse, % control; type: in vivo, Lolium perenne. multiflorum; settings: 28 DAT, g ai/ha by row: r12-40 2,4-DC 31.25/62.5/125/250/375 (3 rows each) + metazachlor 250/500/750 (cycling)
Experimental: Test compositions containing 2,4 DC Example 1B and metazachlor (Butisan® S, 43.1% active ingredient, BASF) and mixtures of 2-(2,4-dichlorophenyl)methyl-4,4-dimethyl-3-isoxazolidinone and metazachlor, were diluted with water to provide the appropriate test rate concentrations.
The test crops were wheat and canola (Brassica napus), the test weeds were Italian ryegrass (IR) (Lolium perenne. multiflorum), annual bluegrass (AB) (Poa annua), common lambsquarters (CL) (Chenopodium album), littleseed canarygrass (LC) (Phalaris minor), common chickweed (CC) (Stellaria media), and corn poppy (CP) (Papaver rhoeas).
For pre-emergence testing, four disposable fiber flats (6″ by 10″) for each rate of application of each herbicide solution were filled with top soil, to which seeds of each species were planted in furrows made by a template pressed on the top of the soil. The furrows were covered with soil after planting the seed and were watered well before application of the test compounds.
Fiber flats designated for treatment were placed in a spray chamber having a static platform and a movable sprayer and height of the spray nozzle was 10.5 inches above the soil level. Once the sprayer was calibrated using water for spray volume of 30 gallons per acre, flats were sprayed with sprayer at a speed to receive a coverage equivalent of 30 gallons per acre. The application rates are those shown in Table 1 below for the individual herbicidal solutions and the herbicide compositions of the present invention. The pre-emergence flats were immediately placed in the greenhouse and watered lightly after treatment. Thereafter they were regularly watered and fertilized for the duration of the test.
The control of weeds was evaluated in each experimental test at 21 days after treatment (DAT) for corn poppy and wheat and 28 DAT for all other species. The results, shown as an average of the replications were compared with results observed in untreated control flats in the same tests.
Percent control was determined by a method similar to the 0 to 100 rating system disclosed in “Research Methods in Weed Science,” 2nd ed., B. Truelove, Ed.; Southern Weed Science Society; Auburn University, Auburn, Ala., 1977.

weeds; Wheat and canola [3] = assay: Ex29 PRE greenhouse; type: in vivo; settings: 28 DAT, weed, crop, rate in the words
Text: The tested weeds include Italian ryegrass (Lolium perenne. multiflorum, LOLMU), wild mustard (Sinapis arvensis, SINAR), annual bluegrass (Poa annua, POAAN), wild oat (Avena fatua, AVEFA), blackgrass (Alopecurus myosuroides, ALOMY), common lambsquarters (Chenopodium album, CHEAL), littleseed canarygrass (Phalaris minor, PHAMI), common chickweed (Stellaria media, STEME), corn poppy (Papaver rhoeas, PAPRH), redroot pigweed (Amaranthus retroflexus, AMARE), silky windgrass (Apera spica-venti, APSEV), wild buckwheat (Polygonum convolvulus, POLCO). The crops teased were Wheat and canola.
Treatments were applied before the emergence of Italian ryegrass, wild oat, wild buckwheat, blackgrass, littleseed canarygrass, common chickweed, common lambsquarters, corn poppy, silky windgrass, redroot pigweed, wild mustard, annual bluegrass, canola, and wheat. […] Flats were watered and fertilized routinely after treatment application.

Littleseed canarygrass = assay: Ex34 PRE 2,4-DC + napropamide, % control, Colby; type: in vivo, Phalaris minor; settings: 28 DAT
Text: Thereafter flats were watered and fertilized routinely.

For `CC1(C)CON(Cc2ccc(Cl)cc2Cl)C1=O` [2,4-DC, 2-(2,4-dichlorophenyl)methyl-4,4-dimethyl-3-isoxazolidinone], the “weed control / crop safety in words” value [1] was “controlled prickly sida, at 125 g controlled green foxtail”, the “weed control / crop safety in words” value ([1]; listed as 2, 4 DC) was “applied alone PRE was safe on cotton, mung bean, bush bean, and cowpea at all rates, lentil was not safe at any rate” and the “weed control in words” value (weeds; Wheat and canola [2]) was “alone provided control of corn poppy at ≥100 g, Italian ryegrass at ≥200 g, lambsquarters, 400 g, blackgrass at ≥200 g, silky windgrass at ≥100 g and chickweed at all rates”. The X (common chickweed; 2,4-DC alone 125 g ai/ha) was 9%, the X (common chickweed; 2,4-DC alone 170 g ai/ha) was 7% and the X (common chickweed; 2,4-DC alone 210 g ai/ha) was 14%. The X (common chickweed; 2,4-DC alone 250 g ai/ha) was 28%, the “% Control IR” value (Italian ryegrass (IR); r42-46 2,4-DC 31.25/62.5/125/250/375, r47-49 metazachlor 250/500/750, 31.25 g ai/ha) was 57% and the “% Control IR” value (Italian ryegrass (IR); r42-46 2,4-DC 31.25/62.5/125/250/375, r47-49 metazachlor 250/500/750, 62.5 g ai/ha) was 68%. For the same molecule, the “% Control IR” value (Italian ryegrass (IR); r42-46 2,4-DC 31.25/62.5/125/250/375, r47-49 metazachlor 250/500/750, 125 g ai/ha) was 85%, the “% Control IR” value (Italian ryegrass (IR); r42-46 2,4-DC 31.25/62.5/125/250/375, r47-49 metazachlor 250/500/750, 250 g ai/ha) was 98% and the “% Control IR” value (Italian ryegrass (IR); r42-46 2,4-DC 31.25/62.5/125/250/375, r47-49 metazachlor 250/500/750, 375 g ai/ha) was 99%. For the same molecule, the “weed control / crop safety in words” value (weeds; Wheat and canola [3]) was “alone gave control of pigweed and Italian ryegrass at ≥200 g ai/ha, corn poppy and wild oat at 400 g, blackgrass at ≥100 g, and common chickweed at all rates”, the X (Littleseed canarygrass; 2,4-DC alone 31 g ai/ha) was 8% and the X (Littleseed canarygrass; 2,4-DC alone 63 g ai/ha) was 12%. For the same molecule, the X (Littleseed canarygrass; 2,4-DC alone 125 g ai/ha) was 18%, the X (Littleseed canarygrass; 2,4-DC alone 250 g ai/ha) was 27% and the X (Littleseed canarygrass; 2,4-DC alone 375 g ai/ha) was 53%.
